Laboratory results from patent US20240116921A1, “LACTAM (HETERO)[…] DERIVATIVES AS INHIBITORS OF ERBB2” (EnLiven Therapeutics, Inc., priority 2020, published 2024).
Structures can show the parent of a compound that is named as a salt.

How the values were obtained:
[1] = target: T1, phosphorylated EGFR (pEGFR) (Homo sapiens, UniProt P00533); assay: Detection of phosphorylated EGFR (pEGFR) in EGF-stimulated A431 cells; type: cell-based; conditions: A431 cells (10% FBS), 4 hours incubation, EGF 30 ng/mL 10 minutes, AlphaLISA
T1 construct: performed to measure phosphorylated EGFR levels using A431 cells (10% FBS); endogenous in cells; host or cells: A431
T1 sequence (P00533 25-1210): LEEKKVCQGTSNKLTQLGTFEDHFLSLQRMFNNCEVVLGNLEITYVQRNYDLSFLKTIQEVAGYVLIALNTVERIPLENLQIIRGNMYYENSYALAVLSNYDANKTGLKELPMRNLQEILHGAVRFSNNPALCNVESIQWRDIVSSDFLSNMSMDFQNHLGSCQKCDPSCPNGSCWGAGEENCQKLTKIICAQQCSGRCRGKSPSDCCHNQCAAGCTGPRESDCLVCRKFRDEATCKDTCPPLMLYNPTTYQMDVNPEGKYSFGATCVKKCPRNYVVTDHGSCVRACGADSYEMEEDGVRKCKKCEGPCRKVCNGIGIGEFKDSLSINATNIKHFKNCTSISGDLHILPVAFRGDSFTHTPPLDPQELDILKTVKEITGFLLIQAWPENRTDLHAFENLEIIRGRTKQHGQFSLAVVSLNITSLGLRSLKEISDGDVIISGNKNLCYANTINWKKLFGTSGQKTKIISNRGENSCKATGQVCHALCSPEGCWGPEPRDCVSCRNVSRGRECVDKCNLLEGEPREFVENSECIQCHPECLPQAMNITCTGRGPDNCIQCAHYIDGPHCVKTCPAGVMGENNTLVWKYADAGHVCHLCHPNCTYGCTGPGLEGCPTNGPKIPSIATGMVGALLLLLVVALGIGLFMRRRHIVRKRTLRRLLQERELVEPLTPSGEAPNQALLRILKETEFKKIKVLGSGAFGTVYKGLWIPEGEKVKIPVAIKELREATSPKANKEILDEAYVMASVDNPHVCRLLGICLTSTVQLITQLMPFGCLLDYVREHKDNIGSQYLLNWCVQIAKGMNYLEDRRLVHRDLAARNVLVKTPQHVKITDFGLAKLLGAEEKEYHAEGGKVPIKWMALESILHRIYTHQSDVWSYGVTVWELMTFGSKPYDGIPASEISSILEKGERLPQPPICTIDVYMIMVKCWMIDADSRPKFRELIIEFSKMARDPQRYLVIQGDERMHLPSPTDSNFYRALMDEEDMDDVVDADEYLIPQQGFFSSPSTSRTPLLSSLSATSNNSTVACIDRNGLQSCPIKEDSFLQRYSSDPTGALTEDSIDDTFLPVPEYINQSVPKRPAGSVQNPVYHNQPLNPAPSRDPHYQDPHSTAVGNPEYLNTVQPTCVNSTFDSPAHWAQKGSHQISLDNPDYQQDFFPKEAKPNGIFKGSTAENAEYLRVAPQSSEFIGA
How it was run: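 AlphaLISA read-out of EGFR phosphorylation after a 10-min EGF pulse (30 ng/mL final). A431 cells (10% FBS) had been exposed to compound for 4 h at 37 °C. IC50 was fitted from % inhibition normalised to DMSO and staurosporine control lysates.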

[2] = target: Ba/F3 ERBB2 A775_G776insYVMA (Homo sapiens, UniProt P04626, DUP772-775, cells depend on it); assay: Cell viability assay, Ba/F3 ERBB2 A775_G776insYVMA; type: cell-based, mouse; conditions: Ba/F3 ERBB2 YVMA cells, cell viability, 72 hours, CellTiter Glo; Table B5; read-out: Ba/F3 ERBB2 YVMA, IC50
Ba/F3 ERBB2 A775_G776insYVMA, sequence (P04626 with tags, fused parts or gaps DUP772-775): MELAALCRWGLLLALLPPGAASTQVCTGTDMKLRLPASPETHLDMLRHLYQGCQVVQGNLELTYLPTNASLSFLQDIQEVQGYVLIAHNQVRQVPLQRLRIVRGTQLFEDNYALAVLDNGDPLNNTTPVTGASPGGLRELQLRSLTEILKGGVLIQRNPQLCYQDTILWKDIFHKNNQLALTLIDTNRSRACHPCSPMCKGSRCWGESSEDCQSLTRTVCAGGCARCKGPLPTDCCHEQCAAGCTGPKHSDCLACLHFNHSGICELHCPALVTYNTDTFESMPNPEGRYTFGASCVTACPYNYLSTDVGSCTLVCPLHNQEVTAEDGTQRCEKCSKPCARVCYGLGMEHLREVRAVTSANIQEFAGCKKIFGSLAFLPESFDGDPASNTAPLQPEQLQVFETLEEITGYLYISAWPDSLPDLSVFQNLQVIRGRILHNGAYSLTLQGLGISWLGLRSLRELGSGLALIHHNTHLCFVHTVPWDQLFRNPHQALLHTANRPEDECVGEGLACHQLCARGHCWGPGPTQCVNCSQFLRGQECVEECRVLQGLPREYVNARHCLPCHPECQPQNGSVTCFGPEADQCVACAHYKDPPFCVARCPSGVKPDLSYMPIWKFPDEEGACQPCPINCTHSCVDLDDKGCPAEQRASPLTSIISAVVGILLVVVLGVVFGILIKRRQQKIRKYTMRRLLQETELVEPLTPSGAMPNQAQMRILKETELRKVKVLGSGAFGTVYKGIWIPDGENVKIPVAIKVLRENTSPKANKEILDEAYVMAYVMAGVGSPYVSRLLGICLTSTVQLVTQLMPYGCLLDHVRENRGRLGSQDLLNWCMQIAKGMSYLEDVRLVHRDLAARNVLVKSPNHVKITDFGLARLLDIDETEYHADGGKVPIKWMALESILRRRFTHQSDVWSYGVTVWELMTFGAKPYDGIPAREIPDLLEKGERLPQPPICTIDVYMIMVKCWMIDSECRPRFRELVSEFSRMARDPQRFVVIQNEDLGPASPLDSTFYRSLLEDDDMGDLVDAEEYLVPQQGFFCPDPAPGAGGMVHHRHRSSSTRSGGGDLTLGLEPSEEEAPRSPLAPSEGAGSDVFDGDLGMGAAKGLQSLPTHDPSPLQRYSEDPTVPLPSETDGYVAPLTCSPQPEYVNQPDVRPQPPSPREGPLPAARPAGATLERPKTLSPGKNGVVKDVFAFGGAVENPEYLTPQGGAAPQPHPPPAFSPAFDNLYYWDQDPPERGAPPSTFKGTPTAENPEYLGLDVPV
How it was run: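 Viability after 72 h compound treatment (37 °C, 5% CO2) was quantified by CellTiter-Glo luminescence of intracellular ATP, with sigmoidal dose-response fitting. Cells were retrovirally engineered Ba/F3 lines whose growth depends on the mutant human ERBB2 in place of IL-3, plated at 3000 per well.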

[3] = target: T2, phosphorylated ERBB2 (pERBB2) (Homo sapiens, UniProt P04626); assay: Detection of phosphorylated ERBB2 (pERBB2) by ELISA in BT-474 cells; type: cell-based; conditions: four hours incubation
T2 construct: endogenous in cells; host or cells: BT-474
T2 sequence (P04626 23-1255): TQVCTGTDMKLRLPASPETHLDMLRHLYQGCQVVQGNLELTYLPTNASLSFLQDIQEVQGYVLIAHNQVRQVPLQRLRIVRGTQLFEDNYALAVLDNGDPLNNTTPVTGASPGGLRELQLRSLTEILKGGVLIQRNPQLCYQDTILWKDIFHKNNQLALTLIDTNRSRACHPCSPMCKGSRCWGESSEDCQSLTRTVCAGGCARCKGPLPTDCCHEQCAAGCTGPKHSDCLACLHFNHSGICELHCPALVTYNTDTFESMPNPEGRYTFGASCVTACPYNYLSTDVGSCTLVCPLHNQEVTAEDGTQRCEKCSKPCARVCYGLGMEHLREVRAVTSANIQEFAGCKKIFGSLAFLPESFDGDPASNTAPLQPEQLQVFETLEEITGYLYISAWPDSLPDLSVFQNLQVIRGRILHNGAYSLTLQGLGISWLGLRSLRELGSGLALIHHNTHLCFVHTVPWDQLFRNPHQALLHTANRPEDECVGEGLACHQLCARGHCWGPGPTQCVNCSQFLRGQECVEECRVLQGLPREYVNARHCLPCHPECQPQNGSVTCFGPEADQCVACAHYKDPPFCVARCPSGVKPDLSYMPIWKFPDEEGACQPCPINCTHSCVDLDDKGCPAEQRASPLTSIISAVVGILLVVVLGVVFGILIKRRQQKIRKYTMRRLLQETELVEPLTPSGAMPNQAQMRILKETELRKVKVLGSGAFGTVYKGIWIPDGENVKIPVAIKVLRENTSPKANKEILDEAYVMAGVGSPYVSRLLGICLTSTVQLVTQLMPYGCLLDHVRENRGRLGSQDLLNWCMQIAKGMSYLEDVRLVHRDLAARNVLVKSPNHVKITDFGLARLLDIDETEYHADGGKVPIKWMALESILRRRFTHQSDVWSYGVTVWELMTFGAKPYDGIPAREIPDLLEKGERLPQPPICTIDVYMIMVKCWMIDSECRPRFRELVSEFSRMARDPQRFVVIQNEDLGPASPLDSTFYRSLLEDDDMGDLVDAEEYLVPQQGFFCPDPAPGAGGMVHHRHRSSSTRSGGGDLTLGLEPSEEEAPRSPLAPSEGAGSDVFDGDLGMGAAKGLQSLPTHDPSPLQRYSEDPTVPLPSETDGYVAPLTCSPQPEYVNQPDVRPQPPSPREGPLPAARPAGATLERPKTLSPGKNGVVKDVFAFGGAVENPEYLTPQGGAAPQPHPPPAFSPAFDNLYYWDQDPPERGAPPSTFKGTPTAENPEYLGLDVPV
How it was run: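 Phospho-ERBB2 in lysates was quantified by sandwich ELISA (A450, TMB) after 4 h compound exposure at 37 °C of BT-474 cells seeded at 2.0×10^4 per well. Compounds tested at 10 µM to 0.01 nM final in four-fold steps; activity normalized to DMSO (0.1%) high and cell-free low controls.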

| Compound | IC50 [1] [µM] | IC50 [3] [µM] | GI50 [2] [µM] |
| --- | --- | --- | --- |
| Cc1c(Oc2ccn3ncnc3c2)ccc(Nc2ncnc3ccc(N4CC/C(=C\CN(C)C)C4=O)nc23)c1F [Compound 78, (3E)-3-[2-(dimethylamino)ethylidene]-1-{4-[(2-fluoro-3-methyl-4-{[1,2,4]triazolo[1,5-a]pyridin-7-yloxy}phenyl)amino]pyrido[3,2-d]pyrimidin-6-yl}pyrrolidin-2-one hydrochloride] | 1.57 | 0.0168 | 0.00992 |
| [2H]C([2H])([2H])n1cnc2cc(Oc3ccc(Nc4ncnc5ccc(N6CC/C(=C\CN(C)C)C6=O)nc45)cc3C)ccc21 [Compound 119, (E)-3-(2-(dimethylamino)ethylidene)-1-(4-((3-methyl-4-((1-(methyl-d3)-1H-benzo[d]imidazol-5-yl)oxy)phenyl)amino)pyrido[3,2-d]pyrimidin-6-yl)pyrrolidin-2-one] | 0.521 | 0.0154 | 0.00118 |
| CN(C)C/C=C1\CCN(c2cc3c(Nc4cc(Cl)c(Oc5ccn6ncnc6c5)cc4F)ncnc3cn2)C1=O [Compound 133, (E)-1-(4-((4-([1,2,4]triazolo[1,5-a]pyridin-7-yloxy)-5-chloro-2-fluorophenyl)amino)pyrido[3,4-d]pyrimidin-6-yl)-3-(2-(dimethylamino)ethylidene)pyrrolidin-2-one] | 1.14 | 0.0109 | 0.0169 |
| Cc1cc(Nc2ncnc3cnc(N4CC/C(=C\CN(C)C)C4=O)cc23)ccc1Oc1ccn2ncnc2c1 [Compound 74, (3E)-3-[2-(dimethylamino)ethylidene]-1-{4-[(3-methyl-4-{[1,2,4]triazolo[1,5-a]pyridin-7-yloxy}phenyl)amino]pyrido[3,4-d]pyrimidin-6-yl}pyrrolidin-2-one] | 2.97 | 0.00543 | 0.00517 |
| Cc1cc(Nc2ncnc3cnc(N4CC(C)/C(=C\CN(C)C)C4=O)cc23)c(F)cc1Oc1ccc2c(c1)nnn2C (single isomer, unassigned) [Example S115, Enantiomer #2, (3E)-3-[2-(dimethylamino)ethylidene]-1-[4-({2-fluoro-5-methyl-4-[(1-methyl-1,2,3-benzotriazol-5-yl)oxy]phenyl}amino)pyrido[3,4-d]pyrimidin-6-yl]-4-methylpyrrolidin-2-one] | > 10 | 0.273 | 0.286 |
| C=C1C(=O)N(c2ccc3ncnc(Nc4ccc(Oc5ccn6ncnc6c5)c(C)c4)c3c2)CC1COCCN(C)C (single isomer, unassigned) [Example S111, Enantiomer #1, 1-(4-(4-([1,2,4]triazolo[1,5-a]pyridin-7-yloxy)-3-methylphenylamino)quinazolin-6-yl)-4-((2-(dimethylamino)ethoxy)methyl)-3-methylenepyrrolidin-2-one] | 0.274 | 0.0166 | 0.0184 |
| Cc1cc(Nc2ncnc3cnc(N4CC/C(=C\C5CN(C)C5)C4=O)cc23)c(F)cc1Oc1ccn2ncnc2c1 [Compound 138, (3E)-1-{4-[(2-fluoro-5-methyl-4-{[1,2,4]triazolo[1,5-a]pyridin-7-yloxy}phenyl)amino]pyrido[3,4-d]pyrimidin-6-yl}-3-[(1-methylazetidin-3-yl)methylidene]pyrrolidin-2-one] | > 10 | 0.0168 | 0.0996 |
| Cc1cc(Nc2ncnc3ccc(N4CC/C(=C\CN(C)C)C4=O)nc23)ccc1Oc1ccc2scnc2c1 [Compound 67, (E)-1-(4-((4-(benzo[d]thiazol-5-yloxy)-3-methylphenyl)amino)pyrido[3,2-d]pyrimidin-6-yl)-3-(2-(dimethylamino)ethylidene)pyrrolidin-2-one] | 0.0532 | 0.0442 | 0.00182 |
| Cc1cc(Nc2ncnc3ccc(N4CC/C(=C\CN(C)C)C4=O)nc23)ccc1Cc1ccc2c(c1)ncn2C [Compound 54, (3E)-3-[2-(dimethylamino)ethylidene]-1-[4-({3-methyl-4-[(1-methyl-1,3-benzodiazol-5-yl)methyl]phenyl}amino)pyrido[3,2-d]pyrimidin-6-yl]pyrrolidin-2-one] | 1.54 | 0.042 | 0.00537 |
| C=C1C(=O)N(c2ccc3ncnc(Nc4ccc(Cc5ccn6ncnc6c5)c(C)c4)c3c2)C2CC12 (single isomer, unassigned) [Example S79, Enantiomer #1, 2-(4-((4-([1,2,4]triazolo[1,5-a]pyridin-7-ylmethyl)-3-methylphenyl)amino)quinazolin-6-yl)-4-methylene-2-azabicyclo[3.1.0]hexan-3-one] | 6.1 | 0.0366 | 0.0321 |
| CC1CN(c2cc3c(Nc4ccc(Oc5ccc6c(c5)nnn6C)cc4)ncnc3cn2)C(=O)/C1=C/CN(C)C (single isomer, unassigned) [Compound 136] | 1.67 | 0.0726 | 0.018 |
| C=C1C(=O)N(c2cc3c(Nc4ccc(Oc5ccn6ncnc6c5)c(C)c4)ncnc3cn2)C[C@@H]1C [Compound 31] | 0.117 | 0.0159 | 0.00378 |
| Cc1cc(Nc2ncnc3ccc(N4CC/C(=C\[C@@H](C)N(C)C)C4=O)nc23)ccc1Oc1ccn2ncnc2c1 [Compound 114, (R,E)-1-(4-((4-([1,2,4]triazolo[1,5-a]pyridin-7-yloxy)-3-methylphenyl)amino)pyrido[3,2-d]pyrimidin-6-yl)-3-(2-(dimethylamino)propylidene)pyrrolidin-2-one] | > 10 | 0.0311 | 0.0243 |

More lines, main results first:

| IC50 [1] [µM] | IC50 [3] [µM] | Compound | GI50 [2] [µM] |
| --- | --- | --- | --- |
| > 10 | 0.589 | CC1CN(c2cc3c(Nc4ccc(Oc5ccc6c(c5)nnn6C)c(F)c4)ncnc3cn2)C(=O)/C1=C/CN(C)C (single isomer, unassigned) [Example S117, Enantiomer #2, (E)-3-(2-(dimethylamino)ethylidene)-1-(4-((3-fluoro-4-((1-methyl-1H-benzo[d][1,2,3]triazol-5-yl)oxy)phenyl)amino)pyrido[3,4-d]pyrimidin-6-yl)-4-methylpyrrolidin-2-one] | > 0.5 |
| > 10 | 0.146 | CC1CN(c2ccc3ncnc(Nc4ccc(Oc5ccn6ncnc6c5)c(F)c4)c3n2)C(=O)/C1=C/CN(C)C (single isomer, unassigned) [Example S127, Enantiomer #2, (E)-1-(4-((4-([1,2,4]triazolo[1,5-a]pyridin-7-yloxy)-3-fluorophenyl)amino)pyrido[3,2-d]pyrimidin-6-yl)-3-(2-(dimethylamino)ethylidene)-4-methylpyrrolidin-2-one] | 0.418 |
| 0.212 | 0.0239 | Cc1cc(Nc2ncnc3ccc(N4CC/C(=C\CN(C)C)C4=O)nc23)ccc1Oc1cccnc1 [Compound 62, (3E)-3-[2-(dimethylamino)ethylidene]-1-(4-{[3-methyl-4-(pyridin-3-yloxy)phenyl]amino}pyrido[3,2-d]pyrimidin-6-yl)pyrrolidin-2-one] | 0.00436 |
| 0.405 | 0.00586 | C=C1C(=O)N(c2ccc3ncnc(Nc4ccc(Oc5ccn6ncnc6c5)c(C)c4)c3c2)CC1CO (stereo not drawn) [Compound 29, 4-(hydroxymethyl)-1-{4-[(3-methyl-4-{[1,2,4]triazolo[1,5-a]pyridin-7-yloxy}phenyl)amino]quinazolin-6-yl}-3-methylidenepyrrolidin-2-one] | 0.0315 |
| 1.2 | 0.027 | C=C1CCCN(c2cc3c(Nc4ccc(Oc5ccc6c(c5)ncn6C)c(C)c4)ncnc3cn2)C1=O [Compound 127, 1-[4-({3-methyl-4-[(1-methyl-1,3-benzodiazol-5-yl)oxy]phenyl}amino)pyrido[3,4-d]pyrimidin-6-yl]-3-methylidenepiperidin-2-one] | 0.0243 |
| 3.41 | 0.0132 | Cc1cc(Nc2ncnc3ccc(N4CC/C(=C\CN(C)C)C4=O)nc23)ccc1Oc1ccn2nnnc2c1 [Compound 108, (3E)-3-[2-(dimethylamino)ethylidene]-1-{4-[(3-methyl-4-{[1,2,3,4]tetrazolo[1,5-a]pyridin-7-yloxy}phenyl)amino]pyrido[3,2-d]pyrimidin-6-yl}pyrrolidin-2-one] | 0.0111 |
| > 10 | 0.0564 | Cc1c(Oc2ccc3c(c2)ncn3C)ccc(Nc2ncnc3ccc(N4CC/C(=C\CN(C)C)C4=O)nc23)c1F [Compound 69, (3E)-3-[2-(dimethylamino)ethylidene]-1-[4-({2-fluoro-3-methyl-4-[(1-methyl-1,3-benzodiazol-5-yl)oxy]phenyl}amino)pyrido[3,2-d]pyrimidin-6-yl]pyrrolidin-2-one] | 0.00357 |
| 6.03 | 0.0442 | Cc1cc(Nc2ncnc3ccc(N4CC/C(=C/CN(C)C)C4=O)nc23)ccc1Oc1ccc2c(c1)ncn2C [Compound 83, (Z)-3-(2-(dimethylamino)ethylidene)-1-(4-((3-methyl-4-((1-methyl-1H-benzo[d]imidazol-5-yl)oxy)phenyl)amino)pyrido[3,2-d]pyrimidin-6-yl)pyrrolidin-2-one] | 0.00473 |
